Laboratory results: US10261090B2, “Glutathione-detecting fluorescent probe” (THE UNIVERSITY OF TOKYO, priority 2014, dated 2019)
Where two headings read alike, the source gives them in different places.

Assays:
[1] = Ultraviolet-visible and fluorescence spectroscopy of the probes; format: physicochemical; settings: for Quantum yield: 0.2 M sodium phosphate buffer pH 7.4
Experimental: (§1) Glutathione was reacted with the fluorescent probe 2Me SiR600 (compound 1) synthesized in Example 1, and fluorescence assay was conducted. A Shimadzu UV-2450 (Shimadzu Corporation) and a Hitachi F-7000 (Hitachi, Ltd.) were used in ultraviolet-visible spectroscopy and fluorescence spectroscopy. A fluorescent probe was diluted to a final concentration of 1 μM in 0.2 M sodium phosphate buffer (pH 7.4), containing 0.1-1% DMSO. The absorption spectrum and fluorescence spectrum were measured when various concentration of glutathione was added in the range of 1 μM-100 mM. The excitation wavelength was 590 nm.

[2] = Fluorescence assay for glutathione: Kd from absorption/fluorescence change on glutathione addition; format: binding
Experimental: as §1

[3] = test system: intracellular glutathione in cultured cancer cells; experiment: Cell imaging in cultured cancer cells by confocal microscope; format: cell-based; settings: for change in fluorescence intensity ratio in cells: NEM addition, FIGS. 8 and 9
Experimental: Next, cell imaging in cultured cancer cells was conducted using compound 1 (2Me SiR600) as a fluorescent probe. Measurement was conducted using a confocal microscope.
Fluorescence imaging in cultured cancer cells was conducted in the same way as in Example 4 using compound 8 (2Me SiR600-TMR) as the fluorescent probe (FIG. 8).

[4] = Table 2, same conditions as Example 2
[5] = Table 2, dissociation constant for glutathione, same conditions as Example 2, read-out: Kd
[6] = Table 1, 1 μM probe, 0.2 M sodium phosphate buffer pH 7.4, 0.1-1% DMSO
[7] = Table 1, dissociation constant for glutathione, calculated from changes in the fluorescence spectrum, pH 7.4, read-out: Kd

Row | Structure (SMILES) | Absorption peak [nm] [1, 4] [nm] | Fluorescence peak [nm] [1, 4] [nm] | Fluorescence quantum yield [1, 4] | Kd [2, 5] [µM] | Absorption peak [nm] [1, 6] [nm] | Fluorescence peak [nm] [1, 6] [nm] | Quantum yield ([1]; Table 1) | Kd [2, 7] [µM] | further results
1 | CN(C)c1ccc2c(c1)[Si](C)(C)C1=CC(=[N+](C)C)C=CC1=C2c1cccc(C(F)(F)F)c1 [Compound 21] | 650 | 673 | 0.20 | 600 |  |  |  |  | 
2 | CN(C)c1ccc2c(c1)[Si](C)(C)C1=CC(=[N+](C)C)C=CC1=C2c1ccccc1 [Compound 2, Ph SiR650] |  |  |  |  | 645 | 668 | 0.14 | 900 | 
3 | CN(C)c1ccc2c(c1)[Si](C)(C)C1=CC(=[N+](C)C)C=CC1=C2c1ccccc1O [Compound 4, 2OH SiR650] |  |  |  |  | 648 | 672 | 0.31 | 43000 | 
4 | CN1CCOc2cc3c(cc21)[Si](C)(C)c1cc2c(cc1=C3c1ccccc1O)OCC[N+]=2C [Compound 7, 2OH OxaSiR diMe] |  |  |  |  | 699 | 739 | 0.07 | 900 | 
5 | CN(C)c1ccc2c(c1)[Si](C)(C)C1=CC(=[N+](C)C)C=CC1=C2c1ccccc1Cl [Compound 23] | 655 | 676 | 0.30 | 27000 |  |  |  |  | 
6 | COC(=O)c1cc(C(=O)NC2CCC(NC(=O)c3ccc(C4=C5C=CC(=N)C=C5[Si](C)(C)c5cc(N)ccc54)c(C)c3)CC2)ccc1-c1c2ccc(=[N+](C)C)cc-2oc2cc(N(C)C)ccc12 (stereo not drawn) [Compound 9, 2Me SiR600-TMR(Me)] |  |  |  |  |  |  |  |  | change in fluorescence intensity ratio in cells [3]: change in fluorescence intensity ratio due to NEM addition was also observed
7 | CN=C1C=CC2=C(c3ccccc3OC)c3ccc(NC)cc3[Si](C)(C)C2=C1.O=C(O)C(F)(F)F [Compound 16] | 620 | 643 | 0.34 | 16000 |  |  |  |  | 
8 | COc1ccccc1C1=C2C=CC(=[N+](C)C)C=C2[Si](C)(C)c2cc(N(C)C)ccc21 [Compound 3, 2OMe SiR650] |  |  |  |  | 649 | 672 | 0.37 | 41000 | 
9 | Cc1ccccc1C1=c2cc3c(cc2[Si](C)(C)c2cc4c(cc21)OCCN4C)=[N+](C)CCO3 [Compound 27] | 695 | 738 | 0.06 | 2100 |  |  |  |  | 
10 | CN(C)c1ccc2c(c1)[Si](C)(C)C1=CC(=[N+](C)C)C=CC1=C2c1ccccc1F [Compound 18] | 655 | 677 | 0.19 | 1300 |  |  |  |  | 
11 | COc1ccccc1C1=c2cc3c(cc2[Si](C)(C)c2cc4c(cc21)OCCN4C)=[N+](C)CCO3 [Compound 6, 2OMe OxaSiR diMe] |  |  |  |  | 699 | 740 | 0.08 | 700 | 
12 | CN(C)c1ccc2c(c1)[Si](C)(C)C1=CC(=[N+](C)C)C=CC1=C2c1ccccc1C#N [Compound 5, 2CN SiR650] |  |  |  |  | 658 | 683 | 0.25 | 1200 | 
13 | CN=C1C=CC2=C(c3ccccc3O)c3ccc(NC)cc3[Si](C)(C)C2=C1.O=C(O)C(F)(F)F [Compound 17] | 620 | 643 | 0.22 | 21000 |  |  |  |  | 
14 | Cc1ccccc1C1=C2C=CC(=N)C=C2[Si](C)(C)c2cc(N)ccc21 [Compound 1, 2Me SiR600] |  |  |  |  | 593 | 613 | 0.38 | 1100 | change in fluorescence intensity in cells ([3]; glutathione depletion due to N-ethylmaleimide (NEM) addition, FIG. 4): an increase in fluorescence intensity was found; Kd ([2]; from values at absorption peak wavelength (593 nm) against glutathione concentration, read-out: dissociation constant Kd): 1000 µM; Kd ([2]; from values at fluorescence peak wavelength (614 nm) against glutathione concentration, excitation 590 nm, read-out: dissociation constant Kd): 1100 µM
15 | Cc1ccccc1C1=C2C=CC(=[N+](C)C)C=C2[Si](C)(C)c2cc(N)ccc21 [Compound 26] | 620 | 643 | 0.14 | 15000 |  |  |  |  | 
16 | Cc1cc(C(=O)NC2CCC(NC(=O)c3ccc(-c4c5ccc(=[N+](C)C)cc-5oc5cc(N(C)C)ccc45)c(C(=O)[O-])c3)CC2)ccc1C1=C2C=CC(=N)C=C2[Si](C)(C)c2cc(N)ccc21 (stereo not drawn) [Compound 8, 2Me SiR600-TMR] |  |  |  |  |  |  |  |  | change in fluorescence intensity ratio in cells [3]: change in fluorescence intensity ratio observed
17 | CCc1ccccc1C1=C2C=CC(=N)C=C2[Si](C)(C)c2cc(N)ccc21.O=C(O)C(F)(F)F [Compound 11] | 592 | 614 | 0.44 | 2300 |  |  |  |  | 
18 | CN(C)c1ccc2c(c1)[Si](C)(C)C1=CC(=[N+](C)C)C=CC1=C2c1ccc(C(F)(F)F)cc1 [Compound 22] | 650 | 673 | 0.16 | 500 |  |  |  |  | 
